Experimental findings from patent US5192756A, “Aminosterol antibiotic” (The Children's Hospital of Pennsylvania, priority 1992, dated 1993) are described below.

Data set [1] concerns E. coli. In words: Minimal inhibitory concentration, E. coli. The data set is classed as cell-based. The note with it: E. coli ATCC 25922, 1/2×TSB, 37° C., 18 to 24 hours; for MIC: Escherichia coli, ATCC25922. As for the experimental part: (§1) Squalamine was assayed in vitro against several microbial organisms to evaluate its spectrum of activity.
(§2) Minimal inhibitory concentrations for the bacteria and yeast were determined by incubating 0.9-11×10^5 colony-forming units/ml of log-phase organisms in 1/2×tryptica soy broth (TSB) with increasing concentrations of sample in static 96-2311 microtiter plates (Corning, Inc., Corning, N.Y.) at 37° C. for 18 to 24 hours. The minimal inhibitory concentration is the concentration of sample at which no growth was observed. Control incubation in the absence of […] served to set a baseline value.
(§3) Initial sample concentrations were 2 mg/ml in 250 mM sodium acetate pH 6.6, 11.2 mM HCl, except taurolithocholic acid 3-sulfate which was 2 mg/ml in 50 mM sodium acetate, and squalamine to which HCl was not added because it was acidic following the last step of purification. Spermidine HCl, taurolithocholic acid 3-sulfate, melittin, holothurin and ampicillin were purchased from Sigma (St. Louis, Miss.). CHAPS (3-[(3-cholamidopropyl)dimethylammonio]-1-propane sulfonate dihydrate) was purchased from Aldrich (Milwaukee, Wis.). Conessine was purchased from Aldrich Rare Chemicals Division (Milwaukee, Wis.). Magainin-II amide and CPF-amide were made by Magainin Pharmaceuticals, Inc. (Plymouth Meeting, Penn.). The CPF peptide used in the assay has the sequence […]-NH2. (Richter, K., et al., J. Biol. Chem. 261, 3676-3680 (1986).

Data set [2] deals with Proteus vulgaris. Kind of data set: Minimal inhibitory concentration, Proteus vulgaris. The data set is classed as cell-based. Conditions: Proteus vulgaris ATCC 13315, 1/2×TSB, 37° C., 18 to 24 hours; for MIC: ATCC13315. How it is done: as §1, §2, §3
The nature of data set [3]: Hemolytic activity against human erythrocytes. The data set is classed as cell-based. The note with it: human; 92 μg/ml; 10% erythrocytes in PBS, 37° C., ten minutes; Triton X-100 = 100%. As for the experimental part: (§4) Because of its structural resemblance to steroidal detergents, squalamine was assayed for its hemolytic activity against human erythrocytes.
(§5) Each sample was diluted in H2 O and was added to a 10% (vol/vol) suspension of human erythrocytes in phosphate buffered saline (PBS). Erythrocytes were collected with heparin and washed once in 1×PBS before the assay. Samples were incubated at 37° C. for ten minutes, centrifuged at 12,000× g for one minute, and the OD350 of the supernatant was measured. Addition of Triton X-100 (final concentration 0.1%) defined 100% hemolysis.

Data set [4] relates to Serratia marcescens. In words: Minimal inhibitory concentration, Serratia marcescens. The data set is classed as cell-based. Conditions: Serratia marcescens ATCC 8100, 1/2×TSB, 37° C., 18 to 24 hours; for MIC: ATCC8100. How it is done: as §1, §2, §3
Data set [5] relates to Paramecium caudatum. Kind of data set: Minimal disruptive concentration, Paramecium caudatum. The data set is classed as cell-based. The note with it: for MIC / Minimal Inhibitory Concentration (minimal disruptive concentration for the protozoa): 1% trypticase soy broth, light microscopy for ten minutes; for MIC: read-out: Minimal Inhibitory Concentration (minimal disruptive concentration for the protozoa). As for the experimental part: as §1, §3
(§6) Minimal disruptive concentration (the concentration at which physical disruption of the protozoa occurred) was determined for the protozoa by adding […] of sample (in sodium acetate as above) to […] of 1% trypticase soy broth containing P. caudatum (Nasco, Fort Atkinson, Wiss,). Organisms were observed by light microscopy for ten minutes.

In data set [6] the test system is Staph. aureus. Kind of data set: Minimal inhibitory concentration, Staph. aureus. The data set is classed as cell-based. Conditions: Staph. aureus ATCC 29213, 1/2×TSB, 37° C., 18 to 24 hours; for MIC: Staphylococcus aureus, ATCC29213. As for the experimental part:
as §1, §2, §3

Data set [7] relates to several microbial organisms. In words: In vitro antimicrobial spectrum (bacteria, fungi, protozoa), in words. The note with it: for antibiotic activity (in words): bacteria, fungi, protozoa, concentration range studied. The data set is classed as cell-based. How it is done:
as §1, §2, §3, §6

Data set [8] relates to Strep. faecalis. In words: Minimal inhibitory concentration, Strep. faecalis. The data set is classed as cell-based. Conditions: Strep. faecalis ATCC 29212, 1/2×TSB, 37° C., 18 to 24 hours; for MIC: Enterococcus faecalis, ATCC29212. How it is done:
as §1, §2, §3

In data set [9] the test system is Pseudomonas aeruginosa. In words: Minimal inhibitory concentration, Pseudomonas aeruginosa. The data set is classed as cell-based. The note with it: Pseudomonas aeruginosa ATCC 27853, 1/2×TSB, 37° C., 18 to 24 hours; for MIC: ATCC27853. As for the experimental part: as §1, §2, §3
Data set [10] deals with Candida albicans. Kind of data set: Minimal inhibitory concentration, Candida albicans. The note with it: for MIC: ATCC14053; for MIC / Minimal Inhibitory Concentration: Candida albicans ATCC 14053, 1/2×TSB, 37° C., 18 to 24 hours. The data set is classed as cell-based. As for the experimental part:
as §1, §2, §3

Data set [11] concerns human erythrocytes. In words: Hemolytic activity against human erythrocytes. The data set is classed as cell-based. As for the experimental part: as §4, §5
Data set [12] concerns E. coli D31. Kind of data set: Protease resistance of antimicrobial activity (proteinase K). The data set is classed as in vitro ADME. The note with it: proteinase K 2 mg/ml, one hour, 37° C.; E. coli D31 lawn. As for the experimental part:
Proteinase K (final concentration 2 mg/ml) was added to 0.2 μg/μl squalamine or 0.8 μg/μl magainin II amide in 1×phosphate-buffered saline. After a one hour incubation at 37° C., 2 μl of each sample was applied to the lawn of E. coli D31.

In brackets after ≈: the same amount, converted by molar mass. No end group written: not given here.

`NCCCCNCCCN` [Spermidine]: the MIC is above 500 µg/mL in data set [1]; above 500 µg/mL in [2]; above 500 µg/mL in data set [4]; above 260 µg/mL in [5]; above 500 µg/mL in data set [6]; 250 to 500 µg/mL (≈ 1720 to 3440 µM) in data set [8]. Besides, the MIC in data set [9] and in data set [10] was above 500 µg/mL in each case. This compound also showed a hemolysis at 10 min in data set [3] below 0.5%. Besides, in data set [7], the “antibiotic activity (in words)” value was “inactive as an antibiotic”.
Take `CC[C@H](C)[C@H](NC(=O)CN)C(=O)NCC(=O)N[C@@H](C)C(=O)N[C@H](C(=O)N[C@@H](CC(C)C)C(=O)N[C@@H](CCCCN)C(=O)N[C@H](C(=O)N[C@@H](CC(C)C)C(=O)N[C@H](C(=O)N[C@H](C(=O)NCC(=O)N[C@@H](CC(C)C)C(=O)N1CCC[C@H]1C(=O)N[C@@H](C)C(=O)N[C@@H](CC(C)C)C(=O)N[C@H](C(=O)N[C@@H](CO)C(=O)N[C@@H](Cc1c[nH]c2ccccc12)C(=O)N[C@H](C(=O)N[C@@H](CCCCN)C(=O)N[C@@H](CCCNC(=N)N)C(=O)N[C@@H](CCCCN)C(=O)N[C@@H](CCCNC(=N)N)C(=O)N[C@@H](CCC(N)=O)C(=O)N[C@@H](CCC(N)=O)C(N)=O)[C@@H](C)CC)[C@@H](C)CC)[C@@H](C)O)[C@@H](C)O)C(C)C)C(C)C` [Melittin]: the “Minimal Inhibitory Concentration” value in data set [1] is 8 to 16 µg/mL; in data set [2], 16 to 31 µg/mL; in [4], above 250 µg/mL; in [6] it was 8 to 16 µg/mL; in data set [8] it was 4 to 16 µg/mL; in data set [9], 16 to 31 µg/mL. For the same compound, the “Minimal Inhibitory Concentration” value in data set [10] lay within 16 to 31 µg/mL. For the same compound, the “antibiotic versus hemolytic concentration / selectivity (in words)” value in data set [11] (antibiotic activity compared with erythrocyte disruption) is “fall within a similar concentration range”. For the same compound, in data set [5], the “Minimal Inhibitory Concentration (minimal disruptive concentration for the protozoa)” value was in the range of 2 to 4 µg/mL.
Consider `CC1(C)S[C@@H]2[C@H](NC(=O)[C@H](N)c3ccccc3)C(=O)N2[C@H]1C(=O)O` [Ampicillin, ampicillin], for which the MIC in data set [1] is 2 to 4 µg/mL (≈ 5.72 to 11.4 µM); in data set [2], 8 to 16 µg/mL (≈ 22.9 to 45.8 µM); in data set [4] it was 4 to 62 µg/mL (≈ 11.4 to 177 µM); in [5], above 65 µg/mL; in data set [6], 1 µg/mL (≈ 2.86 µM); in [8] it was below 0.25 µg/mL. The MIC was 62 to 125 µg/mL (≈ 177 to 358 µM) in data set [9] and above 125 µg/mL in data set [10]. In data set [3], the hemolysis at 10 min is below 0.5%.
Turning to `C[C@H](CCC(=O)NCCS(=O)(=O)O)[C@H]1CC[C@H]2[C@@H]3CC[C@@H]4C[C@H](OS(=O)(=O)O)CC[C@]4(C)[C@H]3CC[C@]12C` [Taurolithocholic Acid 3-sulfate, taurolithocholic acid 3-sulfate], the MIC in data set [1] is above 500 µg/mL; in data set [2], above 500 µg/mL; in [4], above 500 µg/mL; in data set [5] it was above 260 µg/mL; in [6] it was above 500 µg/mL; in data set [8], above 500 µg/mL. Also, the MIC in data set [9] and in data set [10] was above 500 µg/mL throughout. In addition, in data set [7], the “antibiotic activity (in words)” value is “inactive as an antibiotic”.
Take Magainin II: the “Minimal Inhibitory Concentration” value in [1] is 31 to 62 µg/mL; in data set [2], 125 to 250 µg/mL; in [4], above 250 µg/mL; in data set [6] it was above 250 µg/mL; in data set [8], above 250 µg/mL; in data set [9], 31 to 62 µg/mL. For the same compound, the “Minimal Inhibitory Concentration” value in [10] fell in the range of 125 to 250 µg/mL. Moreover, in [5], the “Minimal Inhibitory Concentration (minimal disruptive concentration for the protozoa)” value is 33 to 65 µg/mL. In addition, the “antimicrobial activity after proteinase K digestion” value in data set [12] was “lost all activity on proteinase K digestion”.
On to `C[C@H]1[C@H]2CC[C@H]3[C@@H]4CC=C5C[C@@H](N(C)C)CC[C@]5(C)[C@H]4CC[C@]23CN1C` [Conessine], for which the MIC in data set [1] was above 500 µg/mL; in data set [2], above 500 µg/mL; in data set [4], above 500 µg/mL; in [5], 16 to 33 µg/mL (≈ 44.9 to 92.5 µM); in data set [6], above 500 µg/mL; in data set [8], above 500 µg/mL. Also, the MIC in data set [9] is above 500 µg/mL; in data set [10] it was 31 to 62 µg/mL (≈ 86.9 to 174 µM). Besides, the hemolysis at 10 min in data set [3] was below 0.5%. For the same compound, the “antiprotozoan activity (in words)” value in data set [5] is “exhibits antifungal (Candida) and antiprotozoan (Paramecium caudatum) activity”. In addition, in data set [7] (bacteria of Table I), the “antibacterial activity (in words)” value is on record as “lacks antibacterial activity”. Further, the “antifungal activity (in words)” value in [10] (Candida) is “exhibits antifungal (Candida) and antiprotozoan (Paramecium caudatum) activity”.
As to “GFGSFLGKALKAALKIGANALGGSPQQ-NH2 [CPF, caerulein percursor fragment, Xenopus antimicrobial peptide]”, the “Minimal Inhibitory Concentration” value in data set [1] is 8 to 16 µg/mL; in data set [2], 62 to 125 µg/mL; in data set [4] it was above 125 µg/mL; in data set [6], 8 to 16 µg/mL; in [8], 31 to 62 µg/mL; in data set [9] it was 8 to 31 µg/mL. In data set [10], the “Minimal Inhibitory Concentration” value was in the range of 62 to 125 µg/mL. Moreover, in data set [11] (92 μg/ml, 10% erythrocytes in PBS, 37° C., ten minutes, Triton X-100 = 100%, 10 min), the hemolysis came out at 3%. For the same compound, the “Minimal Inhibitory Concentration (minimal disruptive concentration for the protozoa)” value in data set [5] lay in the range of 4 to 8 µg/mL.
With `C[C@H](CCC(=O)NCCC[N+](C)(C)CCCS(=O)(=O)[O-])[C@H]1CC[C@H]2[C@@H]3[C@H](O)C[C@@H]4C[C@H](O)CC[C@]4(C)[C@H]3C[C@H](O)[C@]12C` [CHAPS, 3-[(3-cholamidopropyl)dimethylammonio]-1-propane sulfonate dihydrate], the MIC was above 500 µg/mL in [1]; above 500 µg/mL in [2]; above 500 µg/mL in data set [4]; above 260 µg/mL in data set [5]; above 500 µg/mL in [6]; 250 to 500 µg/mL in data set [8]. Moreover, the MIC in data set [9] and in data set [10] was above 500 µg/mL in each case. In addition, the hemolysis at 10 min in data set [3] was below 0.5%. Further, in data set [7], the “antibiotic activity (in words)” value was “inactive as an antibiotic”.
